≈ marks a conversion by molar mass, not a printed value.

The nature of assay [1]: Cytotoxicity against human Mel2 cells. The class given is functional. The following applies: read-out: ED50 (the source's name).
Assay [2] can be described thus: Cytotoxicity against human Mel1 cells. Type of assay: functional. The following applies: read-out: ED50 (the source's name).

Take `C=C(C)[C@@H]1CC[C@]2(C(=O)O)CC[C@]3(C)[C@H](CC[C@@H]4[C@@]5(C)CC[C@H](O)C(C)(C)[C@@H]5[C@@H](O)[C@H](O)[C@]43C)[C@@H]12`: the values for the EC50 in assay [1] and in assay [2] were 16.8 µg/mL (≈ 34.4 µM) and 10.9 µg/mL (≈ 22.3 µM), respectively.

Regarding `C=C(C)[C@@H]1CC[C@]2(C(=O)O)CC[C@]3(C)[C@H](CC[C@@H]4[C@@]5(C)[C@H](O)C[C@H](O)C(C)(C)[C@@H]5C[C@H](O)[C@]43C)[C@@H]12`, the EC50 in assay [1] and in assay [2] was above 20 µg/mL each time.

As for `C=C(C)[C@@H]1CC[C@]2(C(=O)O)CC[C@]3(C)[C@H](CC[C@@H]4[C@@]5(C)CC[C@H](O)C(C)(C)[C@@H]5C[C@H](O)[C@]43C)[C@@H]12`, the EC50 stood at 7.2 µg/mL (≈ 15.2 µM) in assay [1] and 17.1 µg/mL (≈ 36.2 µM) in assay [2].

`C=C(C)[C@@H]1CC[C@]2(C(=O)O)CC[C@]3(C)[C@H](CC[C@@H]4[C@@]5(C)CC[C@H](O)C(C)(C)[C@@H]5CC[C@]43C)[C@@H]12` [BETULINIC ACID]: the EC50 in assay [1] turned out to be 1 µg/mL (≈ 2.19 µM); in assay [2], 3.3 µg/mL (≈ 7.23 µM).

As to `C=C(C)[C@@H]1CC[C@]2(C(=O)O)CC[C@]3(C)[C@H](CC[C@@H]4[C@@]5(C)CCC(=O)C(C)(C)[C@@H]5CC[C@]43C)[C@@H]12` [BETUNOLIC ACID], the values for the EC50 in assay [1] and in assay [2] were 0.1 µg/mL (≈ 0.22 µM) and 16 µg/mL (≈ 35.2 µM), respectively.
